The values below come from patent publication US20260144879A1, “ANTI-VIRAL AND HEPATIC-TARGETED DRUGS” (AI-BIOPHARMA, priority 2019, published 2026).

The subject of data set [1] is HBV (genotype D, serotype ayw, Galibert's strain). The data set can be described thus: Quantification of virion associated secreted HBV DNA in supernatant of HBV-infected Primary Human Hepatocytes (PHH) by qPCR, % of replication vs DMSO. It is filed as cell-based, hepatitis B virus. The following applies: 1 μM compound, 7 days treatment, DMSO = 100%; for PHH HBV % of replication at 1 μM compared to DMSO: (*) n = 1; for activity at 1 µM: Hepatitis B virus, Hepatocyte, 168 h, (*) n = 1, read-out: PHH HBV % of replication at 1 μM compared to DMSO. How it is done:
(§1) From Methods in Lucifora J. et al. (Direct antiviral properties of TLR ligands against HBV replication in immune-competent hepatocytes, Science Scientific Reports, 2018, 8:5390): • 1) HepaRG cells were cultured, as described previously by Gripon P. et al. (Infection of a human hepatoma cell line by hepatitis B virus. Proc Natl Acad Sci USA, 2002, 99, p 15655-15660) on pages 15655 and 15656, in Williams E medium supplemented with 10% fetal calf serum, 50 U penicillin/streptomycin (Gibco-Invitrogen) ml^−1, […] ml^−1 and 5×10^−7 M hydrocortisone hemisuccinate (Roche Diagnostics and Boehringer Mannheim, respectively). The cell cultures were maintained in a 5% CO2 atmosphere at 37° C. During the proliferation phase, culture medium was renewed every 2 days. For differentiation and infection, cells were maintained for 2 weeks in standard medium and then for at least 2 more weeks in medium supplemented with 1.8-2.0% DMSO (Sigma). • 2) Primary Human Hepatocytes (PHH) were freshly prepared from human liver resection as previously described by Lecluyse, E. L. & Alexandre, E. (Isolation and culture of primary hepatocytes from resected human liver tissue. Methods Mol Biol, 2010, 640, p 57-82, https://doi.org/10.1007/978-1-60761-688-7_3) on page 63 paragraph 3. “Methods” from section 3.1. through 3.6.2. page 77. All experimental procedures were conducted in conformity with French laws and regulations and were approved by the National Ethics Committee. • 3) Cell viability was measured by both neutral red and MTS (CellTiter 96 Aqueous One Solution cell proliferation assay; Promega) tests. • 4) HBV inoculum (genotype D, serotype ayw, Galibert's strain referred as NC_003977.2 at NCBI) was prepared from HepAD38 (see Ladner, S. K. et al., Inducible expression of human hepatitis B virus (HBV) in stably transfected hepatoblastoma cells: a novel system for screening potential inhibitors of HBV replication. Antimicrob Agents Chemother, 1997, 41, p 1715-1720) supernatants by polyethylene-glycol-MW-8000 (PEG8000, SIGMA) precipitation (8% final) as previously described by Luangsay, S. et al. (Early inhibition of hepatocyte innate responses by hepatitis B virus. J Hepatol, 2015, 63, p 1314-1322, https://doi.org/10.1016/j.jhep.2015.07.014).
(§2) Viral stocks with titer reaching at least 1×10^10 viral genome equivalent (vge)/mL were tested endotoxin free.
(§3) Differentiated HepaRG (dHepaRG) or PHH were infected by HBV at a multiplicity of infection of 100-200 vge/cell in culture medium containing 4% PEG 8000 (Sigma) for 16 h at 37° C. in 12- or six-well plates. At the end of the incubation period, cells were washed once with medium and then cultured in Williams E medium containing DMSO as indicated. In general infection was left for 7 days before any treatment was started, to allow replication reaching its maximum. • 5) Infected cell treatment with compounds of interest: • 5a: After 7 days of infection with the virus (day 0 to day 7), the dHepaRG cells were treated (3 treatments: day 7, day 10 and day 12) with a […] of the tested compound (diluted with sterile water from a 10 mM stock DMSO solution) or DMSO as reference negative control for 7 more days. • 5b: After 4 days of infection with the virus (day 0 to day 4), the PHH cells were treated (3 treatments: day 4, day 7 and day 9) with a […] of the tested compound (diluted with sterile water from a 10 mM stock DMSO solution) for 7 more days. • 6) Quantification of virion associated secreted HBV DNA in cell culture supernatant:
(§4) At the end of the experiment (7 days treatment) the supernatant of infected and treated cells (either dHepaRG or PHH or others) is collected. It is diluted 1/4 into sterile water (molecular biology quality) then treated for 30 minutes with RNAse (10 unit) and DNAse (10 unit) to remove non encapsidated material. […]
A general note: In qPCR the cycle at which signal appears reflects the starting amount.

For data set [2] the test system is unchanged. The data set can be described thus: Quantification of virion associated secreted HBV DNA in supernatant of HBV-infected differentiated HepaRG (dHepaRG) cells by qPCR, % of replication vs DMSO. It is filed as cell-based, hepatitis B virus. The following applies: 1 μM compound, 7 days treatment, DMSO = 100%; for activity at 1 µM: Hepatitis B virus, HepaRG, 168 h, read-out: dHepaRG HBV % of replication at 1 μM compared to DMSO. How it is done:
as §1, §2, §3, §4

A further data set concerns HepaRG cells. As to the kind of experiment: Cell viability by neutral red and MTS (CellTiter 96 Aqueous One Solution) tests, HepaRG cells. In kind it is cell-based, human. The following applies: dHepaRG cells, CellTiter-Glo; read-out: Cytotoxicity (CC50 in μM) in dHepaRG CellTiter-Glo. How it is done: (§5) From Methods in Lucifora J. et al. (Direct antiviral properties of TLR ligands against HBV replication in immune-competent hepatocytes, Science Scientific Reports, 2018, 8:5390): • 1) HepaRG cells were cultured, as described previously by Gripon P. et al. (Infection of a human hepatoma cell line by hepatitis B virus. Proc Natl Acad Sci USA, 2002, 99, p 15655-15660) on pages 15655 and 15656, in Williams E medium supplemented with 10% fetal calf serum, 50 U penicillin/streptomycin (Gibco-Invitrogen) ml^−1, […] ml^−1 and 5×10^−7 M hydrocortisone hemisuccinate (Roche Diagnostics and Boehringer Mannheim, respectively). The cell cultures were maintained in a 5% CO2 atmosphere at 37° C. During the proliferation phase, culture medium was renewed every 2 days. For differentiation and infection, cells were maintained for 2 weeks in standard medium and then for at least 2 more weeks in medium supplemented with 1.8-2.0% DMSO (Sigma). • 2) Primary Human Hepatocytes (PHH) were freshly prepared from human liver resection as previously described by Lecluyse, E. L. & Alexandre, E. (Isolation and culture of primary hepatocytes from resected human liver tissue. Methods Mol Biol, 2010, 640, p 57-82, https://doi.org/10.1007/978-1-60761-688-7_3) on page 63 paragraph 3. “Methods” from section 3.1. through 3.6.2. page 77. […] K. et al., Inducible expression of human hepatitis B virus (HBV) in stably transfected hepatoblastoma cells: a novel system for screening potential inhibitors of HBV replication. Antimicrob Agents Chemother, 1997, 41, p 1715-1720) supernatants by polyethylene-glycol-MW-8000 (PEG8000, SIGMA) precipitation (8% final) as previously described by Luangsay, S. et al. (Early inhibition of hepatocyte innate responses by hepatitis B virus. J Hepatol, 2015, 63, p 1314-1322, https://doi.org/10.1016/j.jhep.2015.07.014).
On the technique in general: In ATP-based viability assays light output follows the ATP content of the culture.

Test in data set [3]: as above
It is filed as cell-based, human. The following applies: human, differentiated HepaRG (dHepaRG) cells, CellTiter-Glo, read-out: Cytotoxicity (CC50 in μM) in dHepaRG CellTiter-Glo. How it is done: as §5

For `CC(C)OC(=O)[C@H](C)N[P@](=O)(CO[C@H](C)Cn1cnc2c(N)ncnc21)Oc1ccccc1` [TAF], the “PHH HBV % of replication at 1 μM compared to DMSO” value in data set [1] is listed as “++++ (++++ ≤ 30%)”. Moreover, in data set [2], the “dHepaRG HBV % of replication at 1 μM compared to DMSO” value was “++++ (++++ ≤ 30%)”. In addition, the CC50 in the data set on HepaRG cells was below 10 µM.

Turning to `CC(C)OC(=O)CC1COP(=O)(CO[C@H](C)Cn2cnc3c(N(C(=O)c4ccccc4)C(=O)c4ccccc4)ncnc32)OC1` (stereo partly drawn) [Example 20, (R)-isopropyl 2-(2-(((1-(6-(N-benzoylbenzamido)-9H-purin-9-yl)propan-2-yl)oxy)methyl)-2-oxido-1,3,2-dioxaphosphinan-5-yl)acetate], the activity at 1 µM in data set [1] and in data set [2] was at most 30% throughout. Besides, the CC50 in data set [3] was above 50 µM.

Consider `CC(C)OC(=O)CC1COP(=O)(CO[C@H](C)Cn2cnc3c(N)ncnc32)OC1` (stereo partly drawn) [Example 3, (R)-isopropyl 2-(2-(((1-(6-amino-9H-purin-9-yl)propan-2-yl)oxy)methyl)-2-oxo-1,3,2-dioxaphosphinan-5-yl)acetate], for which the activity at 1 µM in data set [1] and in data set [2] was at most 30% in each case. The CC50 in data set [3] is above 50 µM.

`C[C@H](Cn1cnc2c(N)ncnc21)OCP(=O)(O)O` [TFV]: in data set [1], the “PHH HBV % of replication at 1 μM compared to DMSO” value is “++++ (++++ ≤ 30%)”. In data set [2], the “dHepaRG HBV % of replication at 1 μM compared to DMSO” value is on record as “++++ (++++ ≤ 30%)”. Besides, the CC50 in the data set on HepaRG cells was above 50 µM.

Take `CC(C)OC(=O)CC1COP(=O)(CO[C@H](C)Cn2cnc3c(NC(=O)c4ccccc4)ncnc32)OC1` (stereo partly drawn) [Example 21, (R)-isopropyl 2-(2-(((1-(6-benzamido-9H-purin-9-yl)propan-2-yl)oxy)methyl)-2-oxo-1,3,2-dioxaphosphinan-5-yl)acetate]: the activity at 1 µM in data set [1] and in data set [2] was at most 30% in each case. In addition, in data set [3], the CC50 was above 50 µM.

One may read the CC50 as the concentration giving 50% cytotoxicity.
